Data reported in the SangsterLogP compilation.

Experiments:
[1] = method code SF-AS, from DOI: 10.1111/j.1476-5381.1988.tb11523.x, PMID: 2900037; conditions: pH 9.0
[2] = method code SF-HPLC, from DOI: 10.1016/0378-5173(87)90234-1; conditions: pH 4.0
[3] = method code SF-HPLC, from DOI: 10.1016/0006-2952(84)90322-8, PMID: 6704182
[4] = method code SF, from DOI: 10.1021/jm030913e.s001, PMID: 14736235; conditions: pH 7.4
[5] = method code SF-HPLC, from PMID: 1515051; conditions: pH 6.0
[6] = method code SF-CR, from DOI: 10.1248/cpb.21.2417, PMID: 4779830; conditions: pH 6.0
[7] = not given; remark: listed apart in the source
[8] = method code SF-AS, from DOI: 10.1021/es00012a023, PMID: 22148214
[9] = method code SF-RC, from DOI: 10.1016/s0969-8051(98)00096-1, PMID: 10100217; conditions: pH 7.4
[10] = method code SF-AS, from DOI: 10.1021/jm00223a031, PMID: 810572
[11] = method code SF-AS, from DOI: 10.1002/jps.2600800717, PMID: 1658297
[12] = method code SF-AS, from DOI: 10.1007/bf02877675, PMID: 411721
[13] = method code SF-CR+DM, from DOI: 10.1021/ja01573a017; conditions: pH 6.5
[14] = method code SF, from DOI: 10.1016/j.bmcl.2006.04.097, PMID: 16714112
[15] = method code SF-GLC, from DOI: 10.1021/je970069v
[16] = not given; remark: listed apart in the source
[17] = not given; remark: listed apart in the source
[18] = method code SF, from DOI: 10.1021/jm00307a001, PMID: 5637185
[19] = method code SF-AS, from PMID: 3699148; conditions: pH 7.4
[20] = method code SF-AS, from DOI: 10.1021/jm00163a043, PMID: 2153206; conditions: pH 7.0
[21] = method code SF-AS, from DOI: 10.1002/jps.2600650731; conditions: pH 11.5
[22] = method code SF-HPLC, from DOI: 10.1080/01483919108049396; conditions: pH 7.0

CNC(=NC#N)NCCSCc1csc(N=C(N)N)n1
logD [1]: 0.6

O=C(c1ccccn1)n1c(=O)[nH]cc(F)c1=O
logD [2]: -0.06

CC(=O)Nc1ccn([C@@H]2O[C@H](COC(C)=O)[C@@H](OC(C)=O)[C@@H]2OC(C)=O)c(=O)n1
logP [3]: -0.16

CCC[C@@H]1CC(=O)N([C@@H](CC)C(N)=O)C1
logD [4]: 1

CC(=O)OC[C@H]1O[C@@H](n2ccc(N)nc2=O)[C@@H](OC(C)=O)[C@@H]1OC(C)=O
logP [3]: -0.8

COC(=O)n1c(-c2cscn2)nc2ccccc21
logD [5]: 2.05

CC(C)C(C(=O)O)c1ccc([N+](=O)[O-])cc1 (centres undefined)
logP: 2.09

CN1C=CC=CC1NS(=O)(=O)c1ccc(N)cc1 (centres undefined)
logD [6]: -0.58

CN1C=CSC1NS(=O)(=O)c1ccc(N)cc1 (centres undefined)
logD [6]: -0.07

CC(C)(C)c1ccc(O)c(C(C)(C)C)c1
logP [7]: 4.74

CC(C)OC(=O)CS(=O)c1ccc([N+](=O)[O-])cc1[N+](=O)[O-] (centres undefined)
logP [8]: 1.61

COC1=C(OC)C(=O)C(C)=CC1=O
logD [9]: 0.73

COc1ccc(O)c2ncccc12
logP [10]: 2.06

CC(C)OC(=O)CS(=O)c1ccccc1[N+](=O)[O-] (centres undefined)
logP [8]: 1.59

COC(=O)CSc1ccccc1[N+](=O)[O-]
logP [8]: 1.88

CC1(C)CC(N(N=O)C(=O)NC2C(O)OC(CO)C(O)C2O)C(C)(C)N1O (centres undefined)
logP [11]: 1.81

N#CC(C#N)=NNc1ccccc1
logP [12]: 2.49

CCCCCCOC(=O)n1cc(F)c(=O)[nH]c1=O
logD [2]: 2.04

Oc1c(Cl)cc(Cl)c2ccccc12
logD [13]: 4.76

CC(C)OC(=O)n1cc(F)c(=O)[nH]c1=O
logD [2]: 0.2

O=[N+]([O-])c1ccccc1C1=NCCO1
logP [14]: 1.27

Cc1c(Cl)c(Cl)c(C(C)C)c(Cl)c1Cl
logP [15]: 6.8

CCNc1nc(NC(C)CC)nc(OC)n1 (centres undefined)
logP [16]: 2.96

Oc1cccc2c(Cl)ccnc12
logP [10]: 2.67

Clc1ccc2cccc(Cl)c2c1
logP [17]: 4.56

C#CC(/C=C/Cl)(CC)OC(N)=O (centres undefined)
logP [18]: 1.71

O=[N+]([O-])c1ccc2c(O)cccc2c1
logD [13]: 3.5

NC(=O)c1cc(Cl)ccc1NCCO
logD [19]: 1.26

Cc1cn([C@H]2C=C[C@@H](CO)O2)c(=O)[nH]c1=S
logD [20]: 0.09

c1ccc2[nH]c(-c3cscn3)nc2c1
logD [5]: 2.47

O=c1[nH]c(=S)ccn1[C@H]1C=C[C@@H](CO)O1
logD [20]: -0.28

CCCCOc1ccc(CC(=O)O)cc1
logP: 2.94

CCNc1nc(NCC)nc(OC)n1
logP [16]: 2.41

Cc1ccc(CC(=O)O)cc1
logP: 2.04

Cc1ccnc2c(O)cccc12
logP [10]: 2.36

Cc1ccc(CCCC(N)=O)c(O)c1
logD [13]: 2.26

CNC(=C[N+](=O)[O-])NCCSCc1nccs1
logD [1]: -0.15

CCC/N=C(N)/N=C(\N)Nc1ccc(Cl)cc1
logD [21]: 2.63

CC[C@@H](C(N)=O)N1C[C@H](CI)CC1=O
logD [4]: 0.51

Clc1cccc2ccccc12
logP [17]: 3.9

Nc1ncnc2c1ncn2C1CCC(CO)O1 (centres undefined)
logD [22]: -0.29

Fc1cccc(F)c1C1=NCCO1
logP [14]: 1.45

Cc1ccc(SCCNc2ccccc2C(N)=O)cc1
logD [19]: 3.15

O=c1ccn(C2OC(CO)C(O)C2O)c(=O)[nH]1 (centres undefined)
logP [3]: -1.81
